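Each compound was tested at five concentrations against cells in 96-well plates for 48 hours. GI50 is the concentration that inhibits growth by half.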 Activity calls are given as the source filed them. No stated cut-off is given here; in the data, active = GI50 up to about 1.1 µM and inactive = higher.
Assays:
Assay in all cases: growth of human tumour cells (NCI), 48 h
[1] = system: U-251
[2] = system: NCI-H23
[3] = system: MDA-N
[4] = system: Hs-578T
[5] = system: MDA-MB-435
[6] = system: LOX IMVI
[7] = system: 786-0
[8] = system: HOP-92
[9] = system: NCI-H226
[10] = system: NCI-H522
[11] = system: DU-145
[12] = system: HOP-62
[13] = system: A549
[14] = system: RPMI-8226
[15] = system: M14
[16] = system: HT-29
[17] = system: Malme-3M
[18] = system: SNB-19
[19] = system: SNB-75

Compound | GI50 [1] | GI50 [2] | GI50 [3] | GI50 [4] | GI50 [5] | GI50 [6] | GI50 [7] | GI50 [8] | GI50 [9] | GI50 [10] | GI50 [11] | GI50 [12] | GI50 [13] | GI50 [14] | GI50 [15] | GI50 [16] | GI50 [17] | GI50 [18] | GI50 [19]
Cc1ccc(C(=O)N(Cc2ccccc2)Cc2ccccc2)cc1/N=N/N(C)C | 37.8 µM (inactive) | 11.2 µM (inactive) | 30.2 µM (inactive) | 19.3 µM (inactive) | 22.4 µM (inactive) | 7.23 µM (inactive) | 22.2 µM (inactive) | 11.9 µM (inactive) | 19.1 µM (inactive) | 9.44 µM (inactive) | 36.6 µM (inactive) | 23.1 µM (inactive) | 17.5 µM (inactive) | 29 µM (inactive) | 18.1 µM (inactive) | 7.6 µM (inactive) | 18.2 µM (inactive) | 15 µM (inactive) | –
COc1c(O)c(O)c2c(c1O)C(=O)c1cc(C)cc(O)c1C2=O | 50.4 µM (inactive) | 29.2 µM (inactive) | 53 µM (inactive) | 19.6 µM (inactive) | 53.8 µM (inactive) | 24.1 µM (inactive) | 36.7 µM (inactive) | 92 µM (inactive) | 20 µM (inactive) | 6.07 µM (inactive) | 77.1 µM (inactive) | 56.5 µM (inactive) | 45.9 µM (inactive) | 35.2 µM (inactive) | 22.8 µM (inactive) | 24.4 µM (inactive) | 8.91 µM (inactive) | 65.3 µM (inactive) | 2.97 µM (inactive)
Clc1cccc(/N=C/C=C/Nc2cccc(Cl)c2)c1 | 16.5 µM (inactive) | 21.3 µM (inactive) | 13.9 µM (inactive) | 29.8 µM (inactive) | 15.6 µM (inactive) | 6.32 µM (inactive) | 15.7 µM (inactive) | 42.5 µM (inactive) | > 10 µM (inactive) | 14.8 µM (inactive) | 29 µM (inactive) | 16.8 µM (inactive) | 28.5 µM (inactive) | 27.2 µM (inactive) | – | 16.7 µM (inactive) | > 10 µM (inactive) | > 10 µM (inactive) | > 10 µM (inactive)
CC(=N\N)/C(C)=N/N=C(C)/C(C)=N/N=C(C)/C(C)=N/N=C(C)/C(C)=N/N | > 100 µM (inactive) | 66.8 µM (inactive) | > 100 µM (inactive) | > 100 µM (inactive) | > 100 µM (inactive) | > 100 µM (inactive) | > 100 µM (inactive) | 0.316 µM (active) | > 100 µM (inactive) | > 100 µM (inactive) | > 100 µM (inactive) | > 100 µM (inactive) | > 100 µM (inactive) | > 100 µM (inactive) | > 100 µM (inactive) | > 100 µM (inactive) | > 100 µM (inactive) | > 100 µM (inactive) | > 100 µM (inactive)
COc1cc(C2c3cc4c(c(O)c3C(=O)C3CCC(=O)N32)OCO4)cc(OC)c1OC (stereo unspecified) | > 100 µM (inactive) | > 100 µM (inactive) | 30.4 µM (inactive) | 37.7 µM (inactive) | 18.2 µM (inactive) | 52.5 µM (inactive) | 92.5 µM (inactive) | 34.4 µM (inactive) | 38.3 µM (inactive) | 16.9 µM (inactive) | > 100 µM (inactive) | 82.8 µM (inactive) | 18.2 µM (inactive) | 92.7 µM (inactive) | 42.1 µM (inactive) | 42.9 µM (inactive) | 39.9 µM (inactive) | > 100 µM (inactive) | 30 µM (inactive)
CCOC(=O)c1nc2ccc(C(F)(F)F)cc2nc1Nc1ccc(Cl)c(Cl)c1 | – | > 100 µM (inactive) | 96.8 µM (inactive) | 97.3 µM (inactive) | > 100 µM (inactive) | > 100 µM (inactive) | 75.3 µM (inactive) | > 100 µM (inactive) | – | > 100 µM (inactive) | 70.6 µM (inactive) | 27.5 µM (inactive) | 67.8 µM (inactive) | > 100 µM (inactive) | 79.8 µM (inactive) | > 100 µM (inactive) | > 100 µM (inactive) | 42.5 µM (inactive) | 48.8 µM (inactive)
Cc1c(C2=C(Br)C(=O)N(C)C2=O)c(=O)n(C)c(=O)n1C | 63.1 µM (inactive) | 20.7 µM (inactive) | 28.1 µM (inactive) | > 100 µM (inactive) | 24.9 µM (inactive) | 17.1 µM (inactive) | 17.5 µM (inactive) | 17.7 µM (inactive) | > 100 µM (inactive) | 13.6 µM (inactive) | 28 µM (inactive) | > 100 µM (inactive) | > 100 µM (inactive) | 15.1 µM (inactive) | 35.1 µM (inactive) | 20.3 µM (inactive) | – | > 100 µM (inactive) | > 100 µM (inactive)
CCOC(=O)CNC(=O)C(CSCC1C(=O)Nc2ccccc21)NC(=O)CCC(N)C(=O)OCC (stereo unspecified) | 1.31 µM (inactive) | 2.26 µM (inactive) | 1.79 µM (inactive) | 4.21 µM (inactive) | 1.32 µM (inactive) | 0.46 µM (active) | 1.63 µM (inactive) | 1.25 µM (inactive) | 1.93 µM (inactive) | 1.63 µM (inactive) | 3.75 µM (inactive) | 2.1 µM (inactive) | 2.34 µM (inactive) | 1.27 µM (inactive) | 1.84 µM (inactive) | 1.55 µM (inactive) | 1.88 µM (inactive) | 7.46 µM (inactive) | –
C[C@]12CC[C@H](O)CC1=CC[C@@H]1[C@@H]2CC[C@]2(C)C(=O)/C(=C/c3ccc([N+](=O)[O-])cc3)C[C@@H]12 | – | 18.8 µM (inactive) | 51.5 µM (inactive) | 7.83 µM (inactive) | 52.5 µM (inactive) | 10 µM (inactive) | 3.43 µM (inactive) | 9.16 µM (inactive) | 2.96 µM (inactive) | 12.2 µM (inactive) | 13.4 µM (inactive) | 5.9 µM (inactive) | 13.3 µM (inactive) | > 100 µM (inactive) | 26.8 µM (inactive) | 25.5 µM (inactive) | 20.1 µM (inactive) | 10.4 µM (inactive) | 3.52 µM (inactive)
COc1cccc2c1C(=O)c1c(O)c3c(c(O)c1C2=O)C[C@@](O)(C(=O)CO)C[C@@H]3OC1CC(N)C(OC)C(C)O1 (stereo partly specified) | 0.0224 µM (active) | 0.0605 µM (active) | 0.352 µM (active) | 0.138 µM (active) | 0.267 µM (active) | 0.0228 µM (active) | 0.0327 µM (active) | 0.0612 µM (active) | 0.0553 µM (active) | 0.076 µM (active) | 0.264 µM (active) | 0.0234 µM (active) | 0.0269 µM (active) | 0.024 µM (active) | 0.0975 µM (active) | 0.0559 µM (active) | 0.0532 µM (active) | 0.0452 µM (active) | 0.0282 µM (active)
CCN(CC)C(=S)SC(C(=O)Nc1nnc(-c2ccc(Cl)cc2)o1)c1ccccc1 (stereo unspecified) | 10 µM (inactive) | 22.1 µM (inactive) | 17.3 µM (inactive) | 35.4 µM (inactive) | 14.2 µM (inactive) | 15.3 µM (inactive) | 10 µM (inactive) | 16.6 µM (inactive) | – | 4.62 µM (inactive) | 20.1 µM (inactive) | 14.7 µM (inactive) | 17.9 µM (inactive) | 4.72 µM (inactive) | 10.8 µM (inactive) | 4.86 µM (inactive) | 13.8 µM (inactive) | 34.6 µM (inactive) | –
N#CCCC1C(C#N)C2CC1C1C3C=CC(C3)C21 (stereo unspecified) | – | > 100 µM (inactive) | > 100 µM (inactive) | > 100 µM (inactive) | > 100 µM (inactive) | > 100 µM (inactive) | > 100 µM (inactive) | > 100 µM (inactive) | > 100 µM (inactive) | > 100 µM (inactive) | > 100 µM (inactive) | – | > 100 µM (inactive) | > 100 µM (inactive) | > 100 µM (inactive) | > 100 µM (inactive) | > 100 µM (inactive) | > 100 µM (inactive) | > 100 µM (inactive)
Nc1nc(F)nc2c1ncn2C1OC(CO)C(O)C1O (stereo unspecified) | > 81.5 µM (inactive) | 13.3 µM (inactive) | > 58.6 µM (inactive) | > 100 µM (inactive) | 35.7 µM (inactive) | 48.2 µM (inactive) | 38.1 µM (inactive) | 8.79 µM (inactive) | > 100 µM (inactive) | 32.7 µM (inactive) | 15.7 µM (inactive) | 5.12 µM (inactive) | 43 µM (inactive) | > 100 µM (inactive) | 8.53 µM (inactive) | > 100 µM (inactive) | 32.5 µM (inactive) | 19.2 µM (inactive) | > 100 µM (inactive)
CC(=O)O[C@H]1C[C@](C)(O)[C@@]23CC([C@@H](OC(=O)C(C)(C)O)[C@@H](OC(C)=O)C2(COC(=O)c2ccccc2)[C@H]1OC(C)=O)C(C)(C)O3 (stereo partly specified) | 33.4 µM (inactive) | > 100 µM (inactive) | > 100 µM (inactive) | > 100 µM (inactive) | > 100 µM (inactive) | 61.5 µM (inactive) | > 100 µM (inactive) | 60.3 µM (inactive) | – | 67.1 µM (inactive) | > 100 µM (inactive) | > 100 µM (inactive) | 47.8 µM (inactive) | 23.6 µM (inactive) | 55.5 µM (inactive) | > 100 µM (inactive) | > 100 µM (inactive) | > 100 µM (inactive) | –
COc1ccc(Nc2nc(N)c(C(=O)c3ccc(Cl)cc3)s2)cc1 | < 0.01 µM (active) | < 0.0152 µM (active) | < 0.01 µM (active) | < 0.01 µM (active) | < 0.01 µM (active) | < 0.01 µM (active) | < 0.01 µM (active) | 18.2 µM (inactive) | 0.018 µM (active) | < 0.01 µM (active) | < 0.01 µM (active) | < 0.01 µM (active) | < 0.0224 µM (active) | < 0.01 µM (active) | < 0.01 µM (active) | < 0.0108 µM (active) | – | < 0.01 µM (active) | < 0.01 µM (active)

Source: ChEMBL document CHEMBL1201862, “PubChem BioAssay data set” (2004)
